Patent US20090124819A1, “2-SUBSTITUTED VITAMIN D DERIVATIVES” (WISCONSIN ALUMNI RESEARCH FOUNDATION, priority 2001, published 2009)

Each compound was assayed against T1, bovine thymus VDR (Bos taurus, UniProt Q28037) (assay: Binding to bovine thymus vitamin D receptor (VDR), displacement of [3H]-1α,25-dihydroxyvitamin D3). Settings: X=(y/x)×100 from concentrations inhibiting 50% of [3H]-1α,25-dihydroxyvitamin D3 binding; 1α,25-dihydroxyvitamin D3 taken as 100.
T1 construct: Bovine thymus VDR was purchased from Yamasa Biochemical; purchased Yamasa Biochemical (Choshi, Chiba Prefecture, Japan) lot; 112831; host or cells: bovine thymus
T1 sequence (Q28037 1-426): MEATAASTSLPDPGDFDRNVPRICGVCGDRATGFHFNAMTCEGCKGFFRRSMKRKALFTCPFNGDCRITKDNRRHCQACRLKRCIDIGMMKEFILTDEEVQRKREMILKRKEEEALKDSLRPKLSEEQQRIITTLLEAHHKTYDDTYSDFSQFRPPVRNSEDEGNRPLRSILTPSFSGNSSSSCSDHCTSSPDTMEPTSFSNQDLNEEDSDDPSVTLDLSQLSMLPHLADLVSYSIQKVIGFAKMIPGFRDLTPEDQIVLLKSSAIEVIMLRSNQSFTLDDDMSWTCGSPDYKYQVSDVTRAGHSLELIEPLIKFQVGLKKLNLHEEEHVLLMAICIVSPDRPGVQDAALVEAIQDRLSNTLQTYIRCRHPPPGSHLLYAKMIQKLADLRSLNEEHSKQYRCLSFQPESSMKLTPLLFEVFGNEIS
Method: The capability of the vitamin D derivatives of the present invention to bind to bovine thymus VDR was tested.
The vitamin D derivatives of the present invention used were the compounds synthesized in the above-described examples, i.e., (5Z,7E)-(1S,3R)-2,2-dimethyl-9,10-seco-5,7,10(19)-cholestatrien-1,3,25-triol (compound 21), (5Z,7E)-(1R,3S)-2,2-dimethyl-9,10-seco-5,7,10(19)-cholestatrien-1,3,25-triol (compound 22), (5Z,7E)-(1S,3S)-2,2-dimethyl-9,10-seco-5,7,10(19)-cholestatrien-1,3,25-triol (compound 23), and (5Z,7E)-(1R,3R)-2,2-dimethyl-9,10-seco-5,7,10(19)-cholestatrien-1,3,25-triol (compound 24).
In connection with each of compounds 21 to 24 and 1α,25-dihydroxyvitamin D3 (used as a standard), ethanol solutions at various concentrations were prepared in the following manner: In the case of 1α,25-dihydroxyvitamin D3, serial dilutions were prepared at concentrations of 5 nanograms, 500 picograms, 250 picograms, 125 picograms, 63 picograms, 32 picograms, 16 picograms, 8 picograms, 4 picograms, 2 picograms, 1 picogram, 0.5 picogram, and 0.25 picogram as the amount of the compound contained in 50 microliters. In the case of the 1α,3β-compound and the 1α,3α-compound for the configurations of the substituents at the 1-position and the 3-position, serial dilutions were prepared at concentrations of 500 nanograms, 50 nanograms, 25 nanograms, 13 nanograms, 6.3 nanograms, 3.2 nanograms, 1.6 nanograms, 800 picograms, 400 picograms, 200 picograms, 20 picograms, and 2 picograms. In the case of the 1β,3β-compound and the 1β,3α-compound for the configurations of the substituents at the 1-position and the 3-position, serial dilutions were prepared at concentrations of 500 nanograms, 50 nanograms, 5 nanograms, 500 picograms, and 50 picograms.
Bovine thymus VDR was purchased from Yamasa Biochemical (Choshi, Chiba Prefecture, Japan; lot. 112831), and one ampoule thereof (ca. 25 mg) was dissolved in 55 ml of 0.05 M phosphate-0.5 M potassium buffer (pH 7.4).
The ethanol solution […] of each of compounds 21 to 24 or 1α,25-dihydroxyvitamin D3 and the receptor solution (500 μl) were placed in a test tube, and pre-incubated for 1 hour at room temperature. Then, a [^3H]-1α,25-dihydroxyvitamin D3 solution (50 μl) was added at a final concentration of 0.1 nM, and the mixture was incubated overnight at 4° C. Dextran-coated charcoal was added to the reaction mixture, followed by mixing. […] The supernatant (500 μl) was mixed with ACS-II (9.5 ml) (Amersham, England) for radioactivity measurement.
The relative VDR-binding potency of each of Compounds 21 to 24 was calculated from the following equation, with the VDR-binding potency of 1α,25-dihydroxyvitamin D3 being taken as 100. […]

Row | Binding potency (relative VDR-binding potency) | Compound
1 | 3 | C=C1/C(=C\C=C2/CCC[C@@]3(C)C2CCC3[C@H](C)CCCC(C)(C)O)C[C@@H](O)C(C)(C)[C@@H]1O (stereo partly drawn) [Compound 21, (5Z,7E)-(1S,3R)-2,2-Dimethyl-9,10-seco-5,7,10(19)-cholestatrien-1,3,25-triol]
2 | 0.005 | C=C1C(=CC=C2CCCC3(C)C2CCC3C(C)CCCC(C)(C)O)CC(O)C(C)(C)C1O [Compound 22, (5Z,7E)-(1R,3S)-2,2-Dimethyl-9,10-seco-5,7,10(19)-cholestatrien-1,3,25-triol]
3 | 0.06 | C=C1/C(=C\C=C2/CCC[C@@]3(C)C2CCC3[C@H](C)CCCC(C)(C)O)C[C@H](O)C(C)(C)[C@@H]1O (stereo partly drawn) [Compound 23, (5Z,7E)-(1S,3S)-2,2-Dimethyl-9,10-seco-5,7,10(19)-cholestatrien-1,3,25-triol]
4 | <0.001 | C=C1/C(=C\C=C2/CCC[C@@]3(C)C2CCC3[C@H](C)CCCC(C)(C)O)C[C@@H](O)C(C)(C)[C@H]1O (stereo partly drawn) [Compound 24, (5Z,7E)-(1R,3R)-2,2-Dimethyl-9,10-seco-5,7,10(19)-cholestatrien-1,3,25-triol]
